Results reported in patent publication US11684591B2, “Use of a GABAA receptor allosteric enhancer in medicine” (XI'AN LIBANG ZHAOXIN BIOTECHNOLOGY CO., LTD., priority 2018, dated 2023).

How the values were obtained:
[1] = tested on: PTZ-induced tonic-clonic seizures; assay: Antiepileptic test in rats with PTZ-induced seizures; type: in vivo, male SD rats; set-up: key to Seizure Intensity (total score of 7 animals): summed score: grade V = 5, IV = 4, III = 3, below III = 0; settings: 45 mg/kg i.v.; for Number of episodes (animals), grade III / Number of episodes (animals), grade IV / Number of episodes (animals), grade V / Seizure Intensity (total score of 7 animals): n = 7
Protocol: 3. Antiepileptic Test of Compounds 1 and Dipropofol (3,3′, 5,5′-Tetraisopropyl-4,4′-Biphenol) in Rats with PTZ-Induced Seizures
In this test, male SD rats (Xi'an Jiaotong University), weighing 200 to 250 g, were used and intravenously administrated with 45 mg/kg of a Dipropofol injection, a Compound 1 injection, and blank solvent of the same volume. 1, 3, 5, 10, 15, 30, 60, 90 mins, and 120 mins after the intravenous administration, 70 mg/kg of PTZ was intraperitoneally injected in the rats to induce tonic-clonic seizures. 7 rats were used for each time point in each drug group. Rat seizure intensity was recorded in accordance with the Racine grading criteria in grade III to V seizure status. Scores were recorded according to the seizure intensity: 5 points for grade V, 4 points for grade IV, 3 points for grade III, and 0 point for below grade III.

[2] = tested on: GABAA, Chloride Channel, TBPS; assay: [35S]TBPS radioligand receptor competitive binding test; set-up: species or system rats; settings: [35S]TBPS competitive binding
Protocol: 2. In Vitro GABAA Receptor Target Affinity Test
A radioligand ([^35S] TBPS) receptor competitive binding test was used to evaluate the affinity of the test compound (10 uM) with GABAA receptors.

[3] = Distribution in brain tissues after intravenous administration in rats (LC-MS/MS); type: in vivo, SD rats
Protocol: 1. Comparative Test of the Distribution in Brain Tissues of Compound 1 and Dipropofol (3,3′, 5,5′-Tetraisopropyl-4,4′-Biphenol) after Intravenous Administration in Rats
72 SD rats, weighing 200 to 220 g, were randomly divided into 12 groups (6 per time group), and fasted for 12 h before administration. A dose of 45 mg/kg was intravenously administered with Compound 1 or the dipropofol respectively, and the rates were sacrificed at 5 min, 15 min, 30 min, 1 h, 2 h and 4 h after the administration. The brain tissues were removed immediately, rinsed with ice-cold distilled water, blotted dry, and frozen at −40° C. for storage. The concentration of Compound 1 or the dipropofol in the brain tissues at different points in time after administration in rats was measured by LC-MS/MS, as shown in Table 1 and FIG. 1.

[4] = PTZ 70 mg/kg i.p. 1 min after administration
[5] = PTZ 70 mg/kg i.p. 3 min after administration
[6] = PTZ 70 mg/kg i.p. 5 min after administration
[7] = PTZ 70 mg/kg i.p. 10 min after administration
[8] = PTZ 70 mg/kg i.p. 15 min after administration
[9] = PTZ 70 mg/kg i.p. 30 min after administration
[10] = PTZ 70 mg/kg i.p. 60 min after administration
[11] = PTZ 70 mg/kg i.p. 90 min after administration
[12] = PTZ 70 mg/kg i.p. 120 min after administration

CCCc1cc(-c2cc(CCC)c(O)c(C(C)C)c2)cc(C(C)C)c1O [Compound 1, 4,4′-dihydroxy-3,3′-diisopropyl-5,5′-dipropylbiphenyl]
Number of episodes (animals), grade III [1, 4]: 2
Number of episodes (animals), grade IV [1, 4]: 2
Number of episodes (animals), grade V [1, 4]: 0
Seizure Intensity (total score of 7 animals) [1, 4]: 14
Number of episodes (animals), grade III [1, 5]: 0
Number of episodes (animals), grade IV [1, 5]: 0
Number of episodes (animals), grade V [1, 5]: 0
Seizure Intensity (total score of 7 animals) [1, 5]: 0
Number of episodes (animals), grade III [1, 6]: 0
Number of episodes (animals), grade IV [1, 6]: 0
Number of episodes (animals), grade V [1, 6]: 0
Seizure Intensity (total score of 7 animals) [1, 6]: 0
Number of episodes (animals), grade III [1, 7]: 0
Number of episodes (animals), grade IV [1, 7]: 0
Number of episodes (animals), grade V [1, 7]: 0
Seizure Intensity (total score of 7 animals) [1, 7]: 0
Number of episodes (animals), grade III [1, 8]: 0
Number of episodes (animals), grade IV [1, 8]: 0
Number of episodes (animals), grade V [1, 8]: 0
Seizure Intensity (total score of 7 animals) [1, 8]: 0
Number of episodes (animals), grade III [1, 9]: 0
Number of episodes (animals), grade IV [1, 9]: 0
Number of episodes (animals), grade V [1, 9]: 0
Seizure Intensity (total score of 7 animals) [1, 9]: 0
Number of episodes (animals), grade III [1, 10]: 0
Number of episodes (animals), grade IV [1, 10]: 0
Number of episodes (animals), grade V [1, 10]: 0
Seizure Intensity (total score of 7 animals) [1, 10]: 0
Number of episodes (animals), grade III [1, 11]: 0
Number of episodes (animals), grade IV [1, 11]: 0
Number of episodes (animals), grade V [1, 11]: 0
Seizure Intensity (total score of 7 animals) [1, 11]: 0
Number of episodes (animals), grade III [1, 12]: 0
Number of episodes (animals), grade IV [1, 12]: 0
Number of episodes (animals), grade V [1, 12]: 0
Seizure Intensity (total score of 7 animals) [1, 12]: 0
Time after administration for which the potency can be maintained ([1]; rats): ≥ 120 min
Affinity for the GABAA receptors (in words) [2]: high affinity for the GABAA receptors, which affinity is comparable to that of the dipropofol
IC50 ([2]; rats, test concentration 30, 10, 3, 1, 0.3 uM): 2930 nM
AUC0-4h in the brain tissues relative to that of the dipropofol ([3]; 45 mg/kg i.v.): about 1.31 times
Time at which concentration peaked in the brain tissues ([3]; 45 mg/kg i.v.): 15 min
Concentration in the brain tissues relative to that of the dipropofol ([3]; 45 mg/kg i.v., 5 min after administration): 2.75 times
concentration at 5 min ([3]; SD, rat, brain, iv, 45 mg/kg i.v., 5 min after administration, average, read-out: Drug concentration in brain tissues): 35200 ng/g
concentration at 15 min ([3]; SD, rat, brain, iv, 45 mg/kg i.v., 15 min after administration, average, read-out: Drug concentration in brain tissues): 42700 ng/g
concentration at 30 min ([3]; SD, rat, brain, iv, 45 mg/kg i.v., 30 min after administration, average, read-out: Drug concentration in brain tissues): 39800 ng/g
concentration at 1 h ([3]; SD, rat, brain, iv, 45 mg/kg i.v., 1 h after administration, average, read-out: Drug concentration in brain tissues): 32000 ng/g
concentration at 2 h ([3]; SD, rat, brain, iv, 45 mg/kg i.v., 2 h after administration, average, read-out: Drug concentration in brain tissues): 22700 ng/g
concentration at 4 h ([3]; SD, rat, brain, iv, 45 mg/kg i.v., 4 h after administration, average, read-out: Drug concentration in brain tissues): 7750 ng/g
Brain entry rate and brain intake amount compared with dipropofol ([3]; same i.v. dose): significantly higher brain entry rate and brain intake amount than the dipropofol
